Test results as given in patent US7608604B2, “Antiparasitic agents” (Pfizer Limited, priority 2007, dated 2009).

System: Haemonchus contortus L3
Assay: Haemonchus contortus L3 (HcL3) in vitro test
Assay type: cell-based
Details: minimum effective dose
Method: The Haemonchus contortus L3 (HcL3) test is used to measure the biological activities of the compounds claimed. The assay involves in vitro testing against H. contortus conducted according to the following general procedure.
HcL3 larvae were collected from infected sheep and, after cleaning, stored in water at 12° C. for up to one month. Viable infective larvae were exsheathed using 10% hypochlorite in Glucose Tyrodes balanced salt solution containing antibiotics and resuspended in basal medium (20 g/l bacto-tryptone, 5 g/l yeast extract, 57 g/l glucose, 0.8 g/l di-Potassium hydrogen orthophosphate, 0.8 g/l potassium dihydrogen orthophosphate and […] Hepes with antibiotics). 95 μl worm suspension was added to each well of a 96 well plate.
Test compounds were dissolved in dimethylsulfoxide to give a working stock solution of 20 mg/ml. The stock concentration was diluted 1:10 in Basal media to give 2.0 mg/ml (10% DMSO). 5 μl of the stock compound solution was added to the worm suspension to give a final concentration of 100 μg/ml. Plates were sealed with pressure sensitive film and incubated at 37° C. Observations were made 2 hrs, 24 hrs, 48 hrs, 72 hrs and 4 days post-treatment using an inverted microscope. Activity was recorded if a significant proportion of the worms were dead or adversely affected by the compound when compared to the control well containing 1% DMSO. Compounds were initially tested at 100 μg/ml, wherefrom relevant dose responses (100, 30, 10, 3, 1, 0.3, 0.1 μg/ml) were conducted in duplicate experiments to generate n=2. Data was recorded as minimum effective dose.

[1] = exsheathed L3 larvae in vitro, 37° C., observed up to 4 days, n=2
[2] = table of Examples 13a-42, 13a/b, 27a/b, 29a/b, 33a/b tested as mixtures of regioisomers

CC(C#N)(COc1cc(C#N)ccc1C(F)(F)F)NC(=O)c1ccc(S(F)(F)(F)(F)F)cc1 (racemic) [Example 1a, N-{1-cyano-2-[5-cyano-2-(trifluoromethyl)phenoxy]-1-methylethyl}-4-(pentafluorothio)benzamide]
in vitro H.c. (L3) MED [1]: 3 µg/mL

CC(C#N)(COc1cc(C#N)ccc1Cl)NC(=O)c1ccc(S(F)(F)(F)(F)F)cc1 (racemic) [Example 2, N-[2-(2-Chloro-5-cyanophenoxy)-1-cyano-1-methylethyl]-4-(pentafluorothio)benzamide]
in vitro H.c. (L3) MED [1]: 1 µg/mL

CC(C#N)(COc1ccc(C#N)cc1C(F)(F)F)NC(=O)c1ccc(S(F)(F)(F)(F)F)cc1 (racemic) [Example 3a, N-{1-Cyano-2-[4-cyano-2-(trifluoromethyl)Phenoxy]-1-methylethyl}-4-(pentafluorothio)benzamide]
in vitro H.c. (L3) MED [1]: 1 µg/mL

CC(C#N)(COc1c(F)cc(C#N)cc1C(F)(F)F)NC(=O)c1ccc(S(F)(F)(F)(F)F)cc1 (racemic) [Example 4, N-{1-Cyano-2-[4-cyano-2-fluoro-6-(trifluoromethyl)phenoxy]-1-methylethyl}-4-(pentafluorothio)benzamide]
in vitro H.c. (L3) MED [1]: 3 µg/mL

CC(C#N)(COc1ccc(C(N)=O)cc1C(F)(F)F)NC(=O)c1ccc(S(F)(F)(F)(F)F)cc1 (racemic) [Example 43, 4-(2-Cyano-2-{[4-(pentafluorothio)benzoyl]amino}propoxy)-3-(trifluoromethyl)benzamide]
in vitro H.c. (L3) MED (unit not given): 1

CC(C#N)(COc1cc(C#N)cc(C(F)(F)F)c1Cl)NC(=O)c1ccc(S(F)(F)(F)(F)F)cc1 (racemic) [Example 44, N-{2-[2-Chloro-5-cyano-3-(trifluoromethyl)phenoxy]-1-cyano-1-methylethyl}-4-(pentafluorothio)benzamide]
in vitro H.c. (L3) MED (unit not given): 10

CC(C#N)(COc1cccc(C#N)c1)NC(=O)c1ccc(S(F)(F)(F)(F)F)cc1 (racemic) [Example 50, N-[1-Cyano-2-(3-cyanophenoxy)-1-methylethyl]-4-(pentafluorothio)benzamide]
in vitro H.c. (L3) MED (unit not given): 3

CC(C#N)(COc1cc(C#N)cc(C(N)=O)c1)NC(=O)c1ccc(S(F)(F)(F)(F)F)cc1 (racemic) [Example 53, 3-Cyano-5-(2-cyano-2-{[4-(pentafluorothio)benzoyl]amino}propoxy)benzamide]
in vitro H.c. (L3) MED (unit not given): 30

C[C@](C#N)(COc1cc(C#N)ccc1C(F)(F)F)NC(=O)c1ccc(S(F)(F)(F)(F)F)cc1 (single isomer, unassigned) [Example 1c, N-{1-cyano-2-[5-cyano-2-(trifluoromethyl)phenoxy]-1-methylethyl}-4-(pentafluorothio)benzamide]
in vitro H.c. (L3) MED [1]: > 30 µg/mL

CC(C#N)(COc1ccc(C#N)cc1C(F)(F)F)NC(=O)c1ccc(S(F)(F)(F)(F)F)cc1 (single isomer, unassigned) [Example 3b, N-{1-Cyano-2-[4-cyano-2-(trifluoromethyl)Phenoxy]-1-methylethyl}-4-(pentafluorothio)benzamide]
in vitro H.c. (L3) MED [1]: 1 µg/mL

CC(C#N)(COc1ccc(C#N)cc1C(F)(F)F)NC(=O)c1ccc(S(F)(F)(F)(F)F)cc1 (single isomer, unassigned) [Example 3c, N-{1-Cyano-2-[4-cyano-2-(trifluoromethyl)Phenoxy]-1-methylethyl}-4-(pentafluorothio)benzamide]
in vitro H.c. (L3) MED [1]: > 30 µg/mL

CC(C#N)(COc1cc(C#N)ccc1C(F)(F)F)NC(=O)c1ccc(S(F)(F)(F)(F)F)cc1 (centres unmarked) [Example 1b, N-{1-cyano-2-[5-cyano-2-(trifluoromethyl)phenoxy]-1-methylethyl}-4-(pentafluorothio)benzamide]
in vitro H.c. (L3) MED [1]: 1 µg/mL

CC(C#N)(COc1ccc(C#N)cc1Cl)NC(=O)c1ccc(S(F)(F)(F)(F)F)cc1 (centres unmarked) [Example 5, N-[2-(2-Chloro-4-cyanophenoxy)-1-cyano-1-methylethyl]-4-(pentafluorothio)benzamide]
H.c. (L3) MED (table of Examples 5-11): 3 µg/mL

CC(C#N)(COc1ccc(C#N)c(Cl)c1)NC(=O)c1ccc(S(F)(F)(F)(F)F)cc1 (centres unmarked) [Example 6, N-[2-(3-Chloro-4-cyanophenoxy)-1-cyano-1-methylethyl]-4-(pentafluorothio)benzamide]
H.c. (L3) MED (table of Examples 5-11): 3 µg/mL

CC(C#N)(COc1cc(C#N)cc(C(F)(F)F)c1)NC(=O)c1ccc(S(F)(F)(F)(F)F)cc1 (centres unmarked) [Example 7, N-{1-cyano-2-[3-cyano-5-(trifluoromethyl)phenoxy]-1-methylethyl}-4-(pentafluorothio)benzamide]
H.c. (L3) MED (table of Examples 5-11): 30 µg/mL

CC(C#N)(COc1c(F)cc(F)cc1C#N)NC(=O)c1ccc(S(F)(F)(F)(F)F)cc1 (centres unmarked) [Example 8, N-[1-Cyano-2-(2-cyano-4,6-difluorophenoxy)-1-methylethyl]-4-(pentafluorothio)benzamide]
H.c. (L3) MED (table of Examples 5-11): 30 µg/mL

CC(C#N)(COc1cc(C#N)ccc1C#N)NC(=O)c1ccc(S(F)(F)(F)(F)F)cc1 (centres unmarked) [Example 9, N-[1-Cyano-2-(3,6-dicyanophenoxy)-1-methylethyl]-4-(pentafluorothio)benzamide]
H.c. (L3) MED (table of Examples 5-11): 3 µg/mL

CC(C#N)(COc1ccc(Br)cc1C(F)(F)F)NC(=O)c1ccc(S(F)(F)(F)(F)F)cc1 (centres unmarked) [Example 10, N-{2-[4-Bromo-2-(trifluoromethyl)phenoxy]-1-cyano-1-methylethyl}-4-(pentafluorothio)benzamide]
H.c. (L3) MED (table of Examples 5-11): 10 µg/mL

CC(C#N)(COc1ccc(C#N)cc1Br)NC(=O)c1ccc(S(F)(F)(F)(F)F)cc1 (centres unmarked) [Example 11, N-[2-(2-Bromo-4-cyanophenoxy)-1-cyano-1-methylethyl]-4-(pentafluorothio)benzamide]
H.c. (L3) MED (table of Examples 5-11): 3 µg/mL

CC(C#N)(COc1ccc(Cl)cc1Cl)NC(=O)c1ccc(S(F)(F)(F)(F)F)cc1 (centres unmarked) [Example 12, N-[1-Cyano-2-(2,4-dichlorophenoxy)-1-methylethyl]-4-(pentafluorothio)benzamide]
in vitro H.c. (L3) MED (unit not given): 3

CC(C#N)(COc1cc(Cl)cc(C#N)c1)NC(=O)c1ccc(S(F)(F)(F)(F)F)cc1 (centres unmarked) [Example 14, N-[2-(3-Chloro-5-cyanophenoxy)-1-cyano-1-methylethyl]-4-(pentafluorothio)benzamide]
H.c. (L3) MED [2]: 3 µg/mL

CC(C#N)(COc1cc(Br)ccc1C#N)NC(=O)c1ccc(S(F)(F)(F)(F)F)cc1 (centres unmarked) [Example 16, N-[2-(5-Bromo-2-cyanophenoxy)-1-cyano-1-methylethyl]-4-(pentafluorothio)benzamide]
H.c. (L3) MED [2]: 10 µg/mL

CC(C#N)(COc1ccc(Cl)cc1C#N)NC(=O)c1ccc(S(F)(F)(F)(F)F)cc1 (centres unmarked) [Example 17, N-[2-(4-Chloro-2-cyanophenoxy)-1-cyano-1-methylethyl]-4-(pentafluorothio)benzamide]
H.c. (L3) MED [2]: 3 µg/mL

CC(C#N)(COc1cccc(F)c1C#N)NC(=O)c1ccc(S(F)(F)(F)(F)F)cc1 (centres unmarked) [Example 18, N-[1-Cyano-2-(2-cyano-3-fluorophenoxy)-1-methylethyl]-4-(pentafluorothio)benzamide]
H.c. (L3) MED [2]: 10 µg/mL

CC(C#N)(COc1ccccc1C#N)NC(=O)c1ccc(S(F)(F)(F)(F)F)cc1 (centres unmarked) [Example 19, N-[1-Cyano-2-(2-cyanophenoxy)-1-methylethyl]-4-(pentafluorothio)benzamide]
H.c. (L3) MED [2]: 10 µg/mL

CC(C#N)(COc1ccc(I)cc1)NC(=O)c1ccc(S(F)(F)(F)(F)F)cc1 (centres unmarked) [Example 20, N-[1-Cyano-2-(4-iodophenoxy)-1-methylethyl]-4-(pentafluorothio)benzamide]
H.c. (L3) MED [2]: 3 µg/mL
